This note sets out measurements from patent publication US20230000842A1, “METHODS OF TREATING CARTILAGE DISORDERS THROUGH INHIBITION OF CLK AND DYRK” (SAMUMED, LLC, priority 2019, published 2023).

SMILES strings stand for the structures.

In assay [1] the test system is Wnt pathway activity (SW480 colon carcinoma cells stably expressing the Sp5-Luc reporter). Briefly: Wnt pathway activity screening assay (Sp5-Luc reporter gene assay). The settings on record: Homo sapiens, SW480, Table 4; SW480 cells stably expressing Sp5-Luc reporter, 10-point dose-response from 10 μM, 36 to 48 hours.
A further assay addresses CLK2 kinase (Homo sapiens, UniProt P49760). In words: CLK2 kinase activity assay (Z-lyte FRET).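 Also: FRET read-out as coumarin to fluorescein emission ratio, unphosphorylated peptide as 0% and phosphorylated peptide as 100% controls, duplicate reactions, non-linear regression fit of dose-response curves.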 The note with it: Z-lyte Ser/Thr 6 peptide, 60 μM ATP, 1 h at room temperature. The class given is biochemical.
In the next assay the target is CLK3 kinase (Homo sapiens, UniProt P49761). In words: CLK3 kinase activity assay (Z-lyte FRET).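 Also: kinase activity read as coumarin/fluorescein emission ratio by FRET, unphosphorylated peptide as 0% and phosphorylated peptide as 100% control, values from non-linear regression of dose-response curves.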 The class given is biochemical. The settings on record: Z-lyte Ser/Thr 18 peptide, 156 μM ATP, 1 h at room temperature.
Assay [2] relates to MMP-3 levels in supernatant of chondrocytes stimulated with IL1-β. In words: Chondrocyte protection assay compound screening (MMP-3 LANCE Ultra). The class given is cell-based, human. The note with it: Homo sapiens, Chondrocyte, IL1-β 10 ng/mL overnight, 11-point curves from 3 μM to 0.05 nM; for Emax: read-out: Maximum % Inhibition. An outline of the steps:
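Primary human chondrocytes (passage 2–5) in differentiation medium were stimulated with 10 ng/mL IL1-β for an overnight incubation at 37 °C. MMP-3 in 1:7-diluted supernatant was read by TR-FRET immunoassay against a standard curve, normalised to IL1-β-stimulated wells; EC50 and maximum % inhibition came from nonlinear regression.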
Background: Time-resolved FRET reads energy transfer from a long-lived donor to a nearby acceptor.

Assay [3] deals with primary human mesenchymal stem cells (hMSCs). In words: Chondrogenesis screening using primary human mesenchymal stem cells. The class given is cell-based. The settings on record: Homo sapiens, Mesenchymal stem cells, hMSC chondrogenesis; maximum activity relative to TGF-β3 (10 ng/mL) positive control; read-out: Max. Activity as % TGF-β3 activity. An outline of the steps: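 Primary hMSCs at passage 3–6 were treated across compound concentrations, with TGF-β3 as positive control. Chondrogenic nodule area per well was normalized to 3 DMSO wells on the same plate (fold over DMSO, 2–3 replicates). EC50, maximum activity and the dose reaching it were derived.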

Sequence of CLK2 kinase (P49760 whole entry): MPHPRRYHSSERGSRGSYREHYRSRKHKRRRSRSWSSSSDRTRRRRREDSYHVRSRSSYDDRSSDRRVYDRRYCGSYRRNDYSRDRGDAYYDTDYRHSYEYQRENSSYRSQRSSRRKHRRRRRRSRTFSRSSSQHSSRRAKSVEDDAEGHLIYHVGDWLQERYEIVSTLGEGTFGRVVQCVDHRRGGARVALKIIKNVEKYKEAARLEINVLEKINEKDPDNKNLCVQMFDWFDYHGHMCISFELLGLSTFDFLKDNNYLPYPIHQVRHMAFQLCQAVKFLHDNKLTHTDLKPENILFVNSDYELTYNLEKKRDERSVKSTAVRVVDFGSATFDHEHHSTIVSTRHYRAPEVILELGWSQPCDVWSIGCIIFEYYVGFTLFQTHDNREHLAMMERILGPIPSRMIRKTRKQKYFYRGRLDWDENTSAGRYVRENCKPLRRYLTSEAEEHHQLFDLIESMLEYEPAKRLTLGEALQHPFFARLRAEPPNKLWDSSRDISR
Sequence of CLK3 kinase (P49761 whole entry): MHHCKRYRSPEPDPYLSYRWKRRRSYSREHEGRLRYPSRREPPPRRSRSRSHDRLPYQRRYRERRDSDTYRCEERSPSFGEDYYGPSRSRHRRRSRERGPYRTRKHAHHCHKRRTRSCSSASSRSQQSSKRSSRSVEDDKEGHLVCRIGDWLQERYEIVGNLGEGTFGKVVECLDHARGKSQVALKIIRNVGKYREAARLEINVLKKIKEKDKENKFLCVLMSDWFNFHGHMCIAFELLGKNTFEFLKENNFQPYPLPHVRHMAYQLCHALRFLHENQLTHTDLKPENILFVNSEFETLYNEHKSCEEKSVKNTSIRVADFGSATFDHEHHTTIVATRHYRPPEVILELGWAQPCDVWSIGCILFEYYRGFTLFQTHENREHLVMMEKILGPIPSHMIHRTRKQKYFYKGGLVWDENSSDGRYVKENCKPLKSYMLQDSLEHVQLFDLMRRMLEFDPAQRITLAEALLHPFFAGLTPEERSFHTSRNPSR
Procedure for CLK3 kinase: This is a non-radioactive assay using fluorescence resonance energy transfer (FRET) between coumarin and fluorescein to detect kinase activity which is represented as a ratio of coumarin emission/fluorescein emission.
The mixture was allowed to incubate with the representative compounds for one hour at room temperature. All reactions were performed in duplicate. Unphosphorylated (“0% Control”) and phosphorylated (“100% control”) forms of Ser/Thr 18 served as control reactions. Additionally, an 11-point dose-response curve of Staurosporine (1 μM top) was run to serve as a positive compound control.
After incubation, Development Reagent A was diluted in Development Buffer then added to the reaction and allowed to further incubate for one hour at room temperature.
Dose-response curves were generated and inhibitory concentration (IC50) values were calculated using non-linear regression curve fit in the Dotmatics' Studies Software (Bishops Stortford, UK).

The EC50 is the concentration that produces a half-maximal response. In the case of `CN1CCN(c2cc(C(=O)Nc3cc4cc(-c5ccc(N)nc5)ccc4cn3)ccn2)CC1` [compound 596], the EC50 turned out to be 0.71 µM in assay [1], 0.001 µM at CLK2 kinase, 0.042 µM on CLK3 kinase and 0.798 µM in assay [2]. The Emax in assay [2] stood at 39.9%.
In the same order, the values of `Nc1ncc(NC(=O)c2n[nH]c3ccc(-c4cncc(CN5CCCCC5)c4)cc23)cn1` [compound 96] are 0.03 µM, 0.001 µM, 0.017 µM, 0.18 µM and 100%.
With `CC(C)N1CCC(Oc2cc(C(=O)Nc3cc4cc(-c5cnn6c5CCNC6)ccc4cn3)ccn2)CC1` [compound 575], the EC50 at CLK2 kinase was 0.002 µM; at CLK3 kinase, 0.026 µM; in assay [2], 0.0758 µM. Also, the Emax in assay [3] is 18.6%; in assay [2], 41.5%.
Consider `Cc1ncc(-c2ccc3cnc(NC(=O)C4(F)CC4)cc3c2)n1C` [compound 587], for which the EC50 came to 2.21 µM in assay [1], 0.008 µM at CLK2 kinase, 0.678 µM on CLK3 kinase and 0.0187 µM in assay [2].
As to `O=C(Nc1ccc(N2CC(CO)(CO)C2)nc1)c1n[nH]c2ccc(-c3cncc(CN4CCCCC4)c3)cc12` [compound 90], the EC50 in assay [1] turned out to be 1.5 µM; at CLK2 kinase, 0.001 µM; at CLK3 kinase, 0.039 µM; in assay [2] it was 0.0067 µM. Moreover, in assay [2], the Emax was 29.7%.
Take `Cn1ncc(-c2ccc3cnc(NC(=O)c4cccc(CN5CCCC5)c4)cc3c2)c1CN1CCCCC1` [compound 572]: the EC50 on CLK2 kinase came out at 0.002 µM; on CLK3 kinase it was 0.015 µM; in assay [2], 1.19 µM. In addition, the figures for the Emax in assay [3] and in assay [2] were 27.6% and 96.5%, respectively.
As to `CC(C)OC(=O)N1CCC(n2cc(C(=O)Nc3cc4cc(-c5cnn(C)c5)ccc4cn3)cn2)CC1` [compound 562], the concentration giving a half-maximal response (EC50) in assay [1] is 0.0545 µM; on CLK2 kinase, 0.001 µM; on CLK3 kinase, 0.02 µM; in assay [2], 0.0881 µM. In addition, in assay [2], the Emax was 34.8%.
Take `CN1CCC(n2cc(C(=O)Nc3ncc4ccc(-c5cncc6[nH]ccc56)cc4n3)cn2)CC1` [compound 616]: the EC50 in assay [1] was 1.4 µM; on CLK2 kinase it was 0.006 µM; at CLK3 kinase, 0.019 µM; in assay [2], at least 3 µM. Further, the Emax in assay [2] worked out at 48.3%.
Regarding `O=C(Nc1cnccn1)c1n[nH]c2ccc(-c3cncc(CN4CCCCCC4)c3)cc12` [compound 99], the EC50 in assay [1] is 0.43 µM; at CLK2 kinase it was 0.002 µM; on CLK3 kinase, 0.135 µM; in assay [2], at least 3 µM. Further, the Emax in assay [2] worked out at 39.6%.
On to `CN1CCC(Oc2ccc(NC(=O)c3n[nH]c4cc(F)c(-c5cnn(C)c5)cc34)cn2)CC1` [compound 110], for which the 50% effective concentration (EC50) came out at 0.12 µM in assay [1], 0.001 µM on CLK2 kinase, 0.048 µM on CLK3 kinase and 1.08 µM in assay [2]. The Emax in assay [2] stood at 87.2%.
On to `Cc1n[nH]c2ccc(-c3cncc(N4CC(C)(N)C4)n3)cc12` [compound 36], for which the EC50 in assay [1] is 3.51 µM; on CLK2 kinase, 0.07 µM; at CLK3 kinase, 3.4 µM; in assay [2], 1.61 µM.
Regarding `Fc1ccc(-c2cncc3[nH]c(-c4n[nH]c5cnc(-c6cncc(CN7CCCC7)c6)cc45)nc23)s1` [compound 264], the EC50 in assay [1] was 0.47 µM; on CLK2 kinase, 0.002 µM; at CLK3 kinase, 0.035 µM; in assay [2], at least 3 µM. Moreover, in assay [2], the Emax was 81%.
For the compound `CC(C)n1cc(C(=O)Nc2cc3cc(-c4cncn4C)ccc3cn2)cn1` [compound 585], the EC50 was 0.0348 µM in assay [1], 0.001 µM on CLK2 kinase, 0.013 µM on CLK3 kinase and 1.43 µM in assay [2]. Further, in assay [2], the Emax came to 77.9%.
Turning to `Cc1n[nH]c2ccc(-c3cncc(N[C@H]4CC[C@H](O)CC4)n3)cc12` [compound 43], the EC50 in assay [1] was 0.095 µM; on CLK2 kinase, 0.001 µM; at CLK3 kinase, 0.309 µM; in assay [2], at least 3 µM. In assay [2], the Emax was 41.9%.
In the same order, the values of `CN1CCC(n2cc(C(=O)Nc3cc4cc(-c5cncc6[nH]ccc56)ccc4cn3)cn2)CC1` [compound 604] are 0.0133 µM, 0.002 µM, 0.007 µM, 0.0401 µM and 57.4%.
In the same order, the values of `Cn1cc(-c2cc3c(C(=O)Nc4ccc(OCCN5CCCC5)cc4)n[nH]c3cc2F)cn1` [compound 108] are 0.315 µM, 0.001 µM, 0.101 µM, at least 3 µM and 32.1%.
For the compound `CN1CCC(Oc2ccc(NC(=O)c3n[nH]c4ccc(-c5ccc(N)nc5)cc34)cc2)CC1` [compound 66], the EC50 was found to be 0.477 µM in assay [1], 0.001 µM at CLK2 kinase, 0.049 µM at CLK3 kinase and 0.0049 µM in assay [2]. The Emax in assay [2] came out at 62.6%.
Regarding `Cn1cncc1-c1ccc2cnc(NC(=O)c3ccc(F)cc3)cc2c1` [compound 580], the EC50 is 0.001 µM on CLK2 kinase, 0.033 µM on CLK3 kinase and at least 3 µM in assay [2]. Also, the Emax in assay [3] was found to be 24.9%; in assay [2], 59.4%.
As to `Cn1ncc(-c2ccc3cnc(NC(=O)[C@H]4CC[C@H](CO)CC4)cc3c2)c1CN1CCCCC1` [compound 570], the EC50 was 0.594 µM in assay [1], 0.009 µM on CLK2 kinase, 0.143 µM on CLK3 kinase and at least 3 µM in assay [2]. For the same compound, in assay [2], the Emax is 80.6%.
In the same order, the values of `O=C(Nc1ccc(CN2CCCC2)cc1)c1n[nH]c2ccc(-c3cnccn3)cc12` [compound 104] are 1.66 µM, 0.002 µM, 0.378 µM, 0.0071 µM and 72.8%.
In the case of `c1cncc(-c2ccc3[nH]nc(-c4cc5c(-c6cccnc6)cncc5[nH]4)c3c2)c1` [compound 341], the values for the EC50 (in assay [1]; on CLK3 kinase; in assay [2]) were 0.31 µM, 0.003 µM and 0.0011 µM, respectively. In addition, the Emax in assay [3] and in assay [2] was 58.2% in each case.
Consider `Cc1n[nH]c2ccc(-c3cncc(OCCN)c3)cc12` [compound 34], for which the EC50 in assay [1] was 1.64 µM; at CLK3 kinase it was 5.25 µM; in assay [2], at least 3 µM. Moreover, the Emax in assay [2] turned out to be 12.9%.
With `CN1CCC(Oc2ccc(C(=O)Nc3cc4cc(-c5cnn(C)c5)ccc4cn3)cc2)CC1` [compound 541], the EC50 at CLK2 kinase is 0.001 µM; at CLK3 kinase it was 0.014 µM; in assay [2], at least 3 µM. Moreover, the Emax in assay [3] turned out to be 25.4%; in assay [2], 95.6%.
Turning to `CN1CCC2(CC1)CN(c1cc(C(=O)Nc3cc4cc(-c5cnn(C)c5CO)ccc4cn3)ccn1)C2` [compound 568], the EC50 at CLK2 kinase was 0.003 µM; on CLK3 kinase, 0.044 µM; in assay [2], at least 3 µM. Moreover, the Emax in assay [2] is 42.7%.
Regarding `Cc1cc(C(=O)Nc2cc3cc(-c4cnn(C)c4)ccc3cn2)cc(N2CCN(C)CC2)n1` [compound 548], the values for the EC50 (at CLK2 kinase; at CLK3 kinase; in assay [2]) were 0.002 µM, 0.026 µM and at least 3 µM, respectively. In addition, in assay [2], the Emax was 62.4%.
Regarding `Cn1cc(-c2ccc3cnc(NC(=O)C4=CNC5C=CC=CC5=C4)cc3c2)cn1` (stereo not shown) [compound 559], the EC50 stood at 0.004 µM on CLK2 kinase, 0.066 µM at CLK3 kinase and 0.0191 µM in assay [2]. Moreover, the Emax in assay [2] turned out to be 41.2%.
Turning to `CN1CCN(c2cc(C(=O)Nc3cc4cc(-c5cnn(C)c5)c(F)cc4cn3)ccn2)CC1` [compound 546], the results for the EC50 (at CLK2 kinase; on CLK3 kinase; in assay [2]) were 0.002 µM, 0.021 µM and 0.0004 µM, respectively. For the same compound, in assay [2], the Emax is 97.3%.
As to `O=C(Nc1cc2cc(-c3cncs3)ccc2cn1)c1ccc2c(c1)CNCC2` [compound 592], the EC50 on CLK2 kinase was 0.002 µM; at CLK3 kinase, 0.043 µM; in assay [2] it was at least 3 µM. Moreover, the Emax in assay [2] stood at 29.7%.
As for `Cn1cc(-c2ccc3cnc(NC(=O)c4ccc5c(c4)ncn5C)cc3c2)cn1` [compound 558], the EC50 is 0.003 µM at CLK2 kinase, 0.049 µM on CLK3 kinase and at least 3 µM in assay [2]. Moreover, the Emax in assay [2] was found to be 46.9%.
In the same order, the values of `CN(C)CCOc1cc(C(=O)Nc2cc3cc(-c4cnn(C)c4)ccc3cn2)ccn1` [compound 544] are 0.002 µM, 0.031 µM, 1.01 µM and 63.5%.
For `CN(C)Cc1ccc(C(=O)Nc2cc3cc(-c4cnn(C)c4)ccc3cn2)cc1` [compound 540], the EC50 was determined as 0.003 µM at CLK2 kinase, 0.041 µM on CLK3 kinase and 0.0474 µM in assay [2]. Besides, in assay [2], the Emax was determined as 80.7%.
In the case of `Cc1nnc(-c2ccc3cnc(NC(=O)c4ccnc(C5CCN(C)CC5)c4)cc3c2)s1` [compound 594], the EC50 on CLK2 kinase was 0.002 µM; at CLK3 kinase, 0.014 µM; in assay [2] it was 0.143 µM. In assay [2], the Emax was 35.3%.
